Measurements from patent US9109048B2, “Inhibition of tumor growth” (priority 1998, dated 2015).
≈ marks a conversion by molar mass, not a printed value. Where “and” joins values, the source holds several entries; their conditions need not be identical. Identical values can stand only once. Square brackets hold non-standard residues; d marks the D form. Ends that are not written are not given here. Peptide text beside a SMILES is read from it. * marks the point of attachment. Trp(2-Pmc) = Cc1c(C)c(S(=O)(=O)c2[nH]c3ccccc3c2C[C@H](N)C(=O)O)c(C)c2c1OC(C)(C)CC2; Bip = N[C@@H](Cc1ccc(-c2ccccc2)cc1)C(=O)O; Fmoc = O=C(OCC1c2ccccc2-c2ccccc21)*; Acm = CC(=O)NC*

Tests used:
[1] = tested on: human red blood cells; assay: Hemolytic assay; assay type: cell-based; conditions: red cells of human
Protocol: The hemolytic activities of the peptides were determined using fresh human red blood cells. 8 ml blood was taken from a healthy person. 4 ml blood was transferred to a polycarbonate tube containing heparin to a final concentration of 10 U/ml, and the remaining 4 ml blood was transferred to a glass tube containing EDTA with final concentration of 15% EDTA. The erythrocytes were isolated from heparin-treated blood by centrifugation in 1500 rpm for 10 min and washed three times with phosphate-buffered saline (PBS) to remove plasma and buffy coat. The cell pellet was resuspended in PBS to make the final volume of 4 ml. The peptide was diluted to a concentration of 2 mg/ml and 0.1 mg/ml. The peptide was further diluted to the concentrations as stated in Table 1. For each tube PBS was added first, then RBCs and peptide solutions. The hematocrit in the blood treated with EDTA was determined after 30 min with Sysmex K-1000, and the resuspended RBCs were diluted into 10% hematocrit. RBCs in PBS (1%) with and without peptides (Table 18) were incubated in a shaker at 37° for 1 hour and then centrifuged at 4000 rpm for 5 min. The supernatant were carefully transferred to new polycarbonate tubes and the absorbance of the supernatant was measured at 540 nm. Baseline hemolysis was hemoglobin released in the presence of PBS, and 100% hemolysis was hemoglobin released in the presence of 0.1% Triton X-100.

[2] = tested on: Escherichia coli ATCC 25922; assay: MIC (minimum inhibitory concentration) test, microdilution; assay type: cell-based
Protocol: (§1) The bacterial strains used were: Escherichia coli ATCC 25922 and Staphylococcus aureus ATCC 25923. All strains were stored at −70° C. The bacteria were grown in 2% Bacto Peptone water (Difco 1807-17-4). All tests were performed with bacteria in mid-logarithmic growth phase. Determination of the minimum inhibitory concentration (MIC) of the peptides for bacterial strains were performed in 1% Bacto Peptone water. A standard microdilution technique with an inoculum of 2×10^6 CFU/ml was used. All assays were performed in triplets. Since the peptides are positively charged and therefore could adhere to the plastic wells, we controlled the actual concentration of the peptides in the solution by HPLC. There was no difference between the concentration of the peptides before or after adding the solution to the plastic wells.

[3] = tested on: Meth A cells (murine sarcoma cell line); assay: Cytotoxicity on Meth A cells, MTT method
Protocol: Peptide solutions (0.1 ml) were added and the plates incubated at 37° C. for 30 minutes, 4 hours or 24 hours. The cytotoxicity was measured using the MTT method (Mosmann et al., J. Immunol. (1986) 136, 2348-2357).
Cells in the growth phase were harvested and washed in fresh medium and injected subcutaneously into the abdominal region of the mice.
The cytotoxic effect of the peptides on different murine and human tumor cells were measured using the MTT method (Mosmann et al., J. Immunol. (1986) 136, 2348-2357).
MTT is a soluble tetrazolium salt yielding a yellow solution when prepared in media or salt solutions lacking phenol red. Dissolved MTT is converted to an insoluble purple formazan by cleavage of the tetrazolium ring by dehydrogenase enzymes. This water insoluble formazan can be solubilized using isopropanol or other solvents and the dissolved material is measured spectrophotometrically. The absorbance was measured as a function of concentration of converted dye.
Cells were maintained in […] medium containing 10% FBS, 1% L-glutamine and 0.1% penicillin and streptomycin. Cells to be used in the assay were grown to confluency, trypsinated and split to single cell suspension, counted and centrifuged at 1500 rpm for 10 min. […][…] of cell suspension was transferred to each well on a 96-well microtiter plate. The cells were stimulated by adding […] of various concentrations of peptides diluted with assay medium to each well. The final concentrations of peptide were for example: 5, 10, 20, 40, 60, 80, 100, and 200 mg/ml. […] As a negative control only medium was added to the cells, and as a positive control (100% killing) 1% triton X-100 was added. Following an incubation period of 4 h., 20 ml MTT dissolved in PBS at a concentration of 5 mg/ml was added to each well, and the plate was incubated further for 2 h. 130 ml of the supernatant were then removed and […] acid alcohol (0.04-0.1 N HCl in isopropanol) added to each well to dissolve the dark blue crystals. The plate was placed on a shaker for 1 h and read spectrophotometrically at 590 nm in a microtiterplate reader using the Softmaxâ program.

[4] = tested on: Staphylococcus aureus ATCC 25923; assay: MIC (minimum inhibitory concentration) test, microdilution; assay type: cell-based
Protocol: as §1

[5] = tested on: MRSA (methicillin resistant S. aureus); assay type: cell-based; conditions: Table 15
Protocol: as §1
Table 15 below gives the antibacterial activity and toxicity data for some preferred peptides of the invention. MRSA is methicillin resistant S. aureus and MRSE is methicilin resistant S. epidermidis.

[6] = Table 7, in µg/mL (unit assumed)

| Compound | MIC E. coli ([2]; ATCC 25922) | MIC E. coli ([2]; Table 15) | Meth A IC 50 ([3]; 4 h) [µg/mL] | MIC S. aureus ([4]; ATCC 25923) | other results |
| --- | --- | --- | --- | --- | --- |
| PAWRKAFRWAWRMKKLAA-OH [LFB 14-31 A2,6,10,17F7R4] | 4.4 µM | 10.0 µg/mL |  |  | EC50 [1]: > 440 µM; EC 50 (toxicity, hemolysis) [1]: >1000 µg/mL; MIC E. coli ([2]; Table 8): 10 µg/mL |
| CSCC[C@H](NC(=O)[C@H](CCCNC(=N)N)NC(=O)[C@H](C)NC(=O)[C@H](CCC(N)=O)NC(=O)[C@H](Cc1c(S(=O)(=O)c2c(C)c(C)c3c(c2C)CCC(C)(C)O3)[nH]c2ccccc12)NC(=O)[C@H](CCCNC(=N)N)NC(=O)[C@H](CCCNC(=N)N)NC(=O)[C@H](CSCNC(C)=O)NC(=O)[C@H](CCCCN)NC(=O)[C@H](Cc1ccccc1)NC(=O)OCC1c2ccccc2-c2ccccc21)C(=O)N[C@@H](CCCCN)C(=O)N[C@@H](CCCCN)C(=O)N[C@@H](CC(C)C)C(=O)NCC(=O)N[C@@H](C)C(=O)O [LFB A8 FMOC PMC] (Fmoc-FKC(Acm)RR[Trp(2-Pmc)]QARMKKLGA-OH) |  |  |  |  | concentration effective in killing Meth A cells ([3]; 4 hours incubation): 50 µg/mL; concentration effective in killing Meth A cells ([3]; ½ hour incubation): higher than 100 μg/ml |
| H-KMASKAGKIAGKIAKVALKAL-NH2 [MSI 24, reference compound] | 5 µg/mL |  | >100 | 5 µg/mL |  |
| GIGKFWKKARKWGRWFWRILKKG [Tosmag W6,12,15,17] | 15 µg/mL |  | 23 | 10 µg/mL |  |
| H-GIGKFLHSAKKFGKAFVGEIMNS-OH [Mag2, reference compound] |  |  |  |  | Meth A IC 50 ([3]; Table 11, peptide required to kill 50% of Meth A cells): 100 µg/mL; MIC E. coli [2, 6]: 20; MIC E. coli ([2]; Table 11): 20 µg/mL; MIC S. aureus [4, 6]: >200; MIC S. aureus ([4]; Table 11): >100 µg/mL |
| KMASKAWKIAGKIAKVALKAL-NH2 (C-terminus assumed) [MSI 24 W7] | 5 µg/mL |  | 26 | 5 µg/mL |  |
| YRWWRWARRW-NH2 [LFM 17-26 A7R2,8,9W3,4, 10Y1NH2] |  | 10.0 µg/mL |  |  | MIC E. coli ([2]; Table 12): 10 µg/mL; MIC S. aureus ([4]; Table 15): 1.0 µg/mL; MIC MRSA [5]: 2.5 µg/mL |
| CSCC[C@H](NC(=O)[C@H](CCCNC(=N)N)NC(=O)[C@H](C)NC(=O)[C@H](CCC(N)=O)NC(=O)[C@H](Cc1c[nH]c2ccccc12)NC(=O)[C@H](CCCNC(=N)N)NC(=O)[C@H](CCCNC(=N)N)NC(=O)[C@H](CSCNC(C)=O)NC(=O)[C@H](CCCCN)NC(=O)[C@H](Cc1ccccc1)NC(=O)OCC1c2ccccc2-c2ccccc21)C(=O)N[C@@H](CCCCN)C(=O)N[C@@H](CCCCN)C(=O)N[C@@H](CC(C)C)C(=O)NCC(=O)N[C@@H](C)C(=O)O [LFB A8 FMOC] (Fmoc-FKC(Acm)RRWQARMKKLGA-OH) |  |  |  |  | concentration effective in killing Meth A cells ([3]; 4 hours incubation): 250 µg/mL; concentration effective in killing Meth A cells ([3]; ½ hour incubation): 250 µg/mL |
| YRWARWWRR-NH2 [LFM 17-25 A4R2,8,9W3,7Y1NH2] | 7.0 µM | 10.0 µg/mL |  |  | EC50 [1]: > 697 µM; EC 50 (toxicity, hemolysis) [1]: >1000 µg/mL; MIC E. coli ([2]; Table 12): 10 µg/mL |
| PAWRKARRWAWRMKKLAA-OH [LFB 14-31 A2,6,10,17R4] | 13.1 µM | 30.0 µg/mL |  | 8.8 µM | EC 50 (toxicity, hemolysis) [1]: >1000 µg/mL; MIC E. coli ([2]; Table 8): 30 µg/mL; MIC S. aureus ([4]; Table 8): 20 µg/mL; MIC S. aureus ([4]; Table 15): 20.0 µg/mL |
| GIGKWLKKWRKFWRAWVRIWKKG [Tosmag W5,9,13,16,20] | >50 µg/mL |  | 23 | >50 µg/mL |  |
| CSCC[C@H](NC(=O)[C@H](CCCNC(=N)N)NC(=O)[C@H](Cc1c[nH]c2ccccc12)NC(=O)[C@H](CCC(N)=O)NC(=O)[C@H](Cc1c[nH]c2ccccc12)NC(=O)[C@H](CCCNC(=N)N)NC(=O)[C@H](CCCNC(=N)N)NC(=O)[C@H](Cc1ccc(-c2ccccc2)cc1)NC(=O)[C@H](CCCCN)NC(=O)[C@@H](N)Cc1ccccc1)C(=O)N[C@@H](CCCCN)C(=O)N[C@@H](CCCCN)C(=O)N[C@@H](CC(C)C)C(=O)NCC(=O)N[C@@H](C)C(=O)O [LFB Bip3] (H-FK[Bip]RRWQWRMKKLGA-OH; N-terminus assumed) |  |  |  |  | MIC MRSA [5]: 2.5 µg/mL (≈ 1.18 µM) |
| KMASKAGKIAWKIAKVALKAL-NH2 (C-terminus assumed) [MSI 24 W11] | 5 µg/mL |  | 24 | 2.5 µg/mL |  |
| H-GIGKFLKKARKFGRAFVRILKKG-OH [Tosmag, reference compound] | 8 µg/mL |  | 18 | 8 µg/mL |  |
| CSCC[C@H](NC(=O)[C@H](CCCNC(=N)N)NC(=O)[C@H](Cc1ccc(-c2ccccc2)cc1)NC(=O)[C@H](CCC(N)=O)NC(=O)[C@H](Cc1ccc(-c2ccccc2)cc1)NC(=O)[C@H](CCCNC(=N)N)NC(=O)[C@H](CCCNC(=N)N)NC(=O)[C@H](CSCNC(C)=O)NC(=O)[C@H](CCCCN)NC(=O)[C@@H](N)Cc1ccccc1)C(=O)N[C@@H](CCCCN)C(=O)N[C@@H](CCCCN)C(=O)N[C@@H](CC(C)C)C(=O)NCC(=O)N[C@@H](C)C(=O)O [LFB Bip6,8] |  | ≧5.8 μM |  |  | MIC S. aureus ([4]; Table 15): 3.0 µg/mL; MIC MRSA [5]: 2.5 µg/mL (≈ 1.17 µM) |
| PAWFKARRWAWRMLKKAA-OH [LFB 14-31 A2,6,10,17 K16L14] | 4.4 µM | 10.0 µg/mL |  | 4.4 µM | EC50 [1]: > 440 µM; EC 50 (toxicity, hemolysis) [1]: >1000 µg/mL; MIC S. aureus ([4]; Table 15): 10.0 µg/mL |
| H-KVALKALKVALKALKVALKAL-NH2 [MSI 20, reference compound] |  |  | >100 |  |  |
| Linear LFB (17-41) modified with Pmc: Linear LFB (17-41) modified with Pmc (FKCRRWQWRMKKLGAPSITCVRRAF; cysteine pairing not given here; also: modified with Pmc group, site not given here; UniProt P24627 36-60, looked up, fragment) |  |  |  |  | cytotoxic effect on Meth A cells compared with another peptide [3]: slightly more effective than Pmc modified LFB 17-31 |
| CSCC[C@H](NC(=O)[C@H](CCCNC(=N)N)NC(=O)[C@H](Cc1ccc(-c2ccccc2)cc1)NC(=O)[C@H](CCC(N)=O)NC(=O)[C@H](Cc1c(S(=O)(=O)c2c(C)c(C)c3c(c2C)CCC(C)(C)O3)[nH]c2ccccc12)NC(=O)[C@H](CCCNC(=N)N)NC(=O)[C@H](CCCNC(=N)N)NC(=O)[C@H](CSCNC(C)=O)NC(=O)[C@H](CCCCN)NC(=O)[C@@H](N)Cc1ccccc1)C(=O)N[C@@H](CCCCN)C(=O)N[C@@H](CCCCN)C(=O)N[C@@H](CC(C)C)C(=O)NCC(=O)N[C@@H](C)C(=O)O [LFB Bip8 PMC] |  | 15.0 μg/ml and 6.3 μM |  |  | MIC E. coli ([2]; Table 9): 25 µg/mL; MIC S. aureus ([4]; Table 9): 5 µg/mL; MIC S. aureus ([4]; Table 15): 2.5 μg/ml and 1.1 μM; MIC MRSA [5]: 2.5 µg/mL (≈ 1.06 µM) |
| GIGKFLHSAKKFGKAFVGWIMNS [Mag2 W19] | 7.5 µg/mL |  | 9 | 10 µg/mL | MIC E. coli [2, 6]: 5-10; MIC S. aureus [4, 6]: 5-10 |
| KVALKWLKVALKALKVALKAL-NH2 (C-terminus assumed) [MSI 20 W6] |  |  | 22 |  |  |
